# “Also recorded” adds a separate entry of the source.
# Experiments:
# KM mice = assay: Acute toxicity assay; format: in vivo; details: for No. of dead mice 5-14 days / No. of dead mice 1 day / No. of dead mice 2 days / No. of dead mice 3 days / No. of dead mice 4 days / Survival (%) on day 14 / Total death: single i.p. injection
# Protocol: KM mice were housed individually in a specific pathogen free facility. Groups of mice (n=10 per group, half male and half female) were injected intraperitoneally once with various dosages of 69 (95, 70, 50, 35, 25 mg/kg), 70 (500, 425, 350, 275, 200 mg/kg), 97 (275, 200, 150, 125 and 100 mg/kg) or vehicle (8.3% cremohorp EL and 8.3% alcohol in PBS) as negative control, respectively. 69, 70 and 97 was dissolved in cremeohore EL and alcohol mixture (1:1, v/v) and further diluted with PBS (1:5, v/v). The death of mice were monitored daily and recorded up to 14 days after injection.
# [1] = test system: Bax, p53 and cleaved-PARP in HeLa cells; assay: Expression level of apoptosis associated proteins; format: cell-based, human; details: western blotting and qPCR
# Protocol: A. Western blotting: After being treated with candidate compound, cells were harvested and lysed. Then, the lysate was isolated by ultracentrifuge and quantified by BCA assay according to the protocol. After being denatured, equivalent protein of each sample was separated by SDSPAGE gel and wet-transferred onto 0.22 μm nitrocellulose membrane. After being blocked by PBS containing 5% skim milk, the membrane was incubated with primary antibody at 4° C. overnight and secondary antibody at room temperature for 2 h and then visualized by enhanced chemiluminescence kit (Thermo Fisher, USA), sequentially.
# B. Quantitative PCR assay: HeLa cells were treated with 69, 70 or 97. The expression level of mRNA of target proteins was tested with qPCR kit (Takara).
# Hela cells = assay: Cell cycle analysis; format: cell-based, human; details: 24 h
# Protocol: 2*10^5 Hela cells per well were seeded into six-well plate and allowed to adhere overnight at 37° C. After treatment with indicated concentrations of 69, 70 and 97, CA-4 as positive control or diluent (0.2% DMSO) as negative control for 24 h, cells were harvested, washed twice with PBS and fixed with 75% ethanol at −20° C. overnight. Then cells were stained with propidium iodide dye (BD Biosciences) for 15 min in dark conditions at room temperature, followed by subjected to flow cytometry (Cytomics FC 500MPL, Beckman Coulter) detection. The results were analyzed by Multicycle AV (for Windows, version 320) software and indicated as mean values from three independent determinations.
compound,measurement,setting,value
"COc1ccc([C@H]2[C@H](CO)C(=O)N2c2cc(OC)c(OC)c(OC)c2)cc1O [Compound 69, (3R,4R)-4-(3-hydroxy-4-methoxyphenyl)-3-(hydroxymethyl)-1-(3,4,5-trimethoxyphenyl)azetidin-2-one]",No. of dead mice 5-14 days,KM mice; 25 mg/kg,0
same,No. of dead mice 1 day,KM mice; 25 mg/kg,0
same,No. of dead mice 2 days,KM mice; 25 mg/kg,0
same,No. of dead mice 3 days,KM mice; 25 mg/kg,0
same,No. of dead mice 4 days,KM mice; 25 mg/kg,0
same,Survival (%) on day 14,KM mice; 25 mg/kg,100%
same,Total death,KM mice; 25 mg/kg,0
same,No. of dead mice 5-14 days,KM mice; 35 mg/kg,0
same,No. of dead mice 1 day,KM mice; 35 mg/kg,0
same,No. of dead mice 2 days,KM mice; 35 mg/kg,0
same,No. of dead mice 3 days,KM mice; 35 mg/kg,1
same,No. of dead mice 4 days,KM mice; 35 mg/kg,0
same,Survival (%) on day 14,KM mice; 35 mg/kg,90%
same,Total death,KM mice; 35 mg/kg,1
same,No. of dead mice 5-14 days,KM mice; 50 mg/kg,0
same,No. of dead mice 1 day,KM mice; 50 mg/kg,0
same,No. of dead mice 2 days,KM mice; 50 mg/kg,0
same,No. of dead mice 3 days,KM mice; 50 mg/kg,1
same,No. of dead mice 4 days,KM mice; 50 mg/kg,0
same,Survival (%) on day 14,KM mice; 50 mg/kg,90%
same,Total death,KM mice; 50 mg/kg,1
same,No. of dead mice 5-14 days,KM mice; 70 mg/kg,1
same,No. of dead mice 1 day,KM mice; 70 mg/kg,0
same,No. of dead mice 2 days,KM mice; 70 mg/kg,0
same,No. of dead mice 3 days,KM mice; 70 mg/kg,4
same,No. of dead mice 4 days,KM mice; 70 mg/kg,2
same,Survival (%) on day 14,KM mice; 70 mg/kg,30%
same,Total death,KM mice; 70 mg/kg,7
same,No. of dead mice 5-14 days,KM mice; 95 mg/kg,1
same,No. of dead mice 1 day,KM mice; 95 mg/kg,0
same,No. of dead mice 2 days,KM mice; 95 mg/kg,0
same,No. of dead mice 3 days,KM mice; 95 mg/kg,6
same,No. of dead mice 4 days,KM mice; 95 mg/kg,1
same,Survival (%) on day 14,KM mice; 95 mg/kg,20%
same,Total death,KM mice; 95 mg/kg,8
same,LD50,"KM mice; single intraperitoneal injection, 14 days",61.5 mg/kg
same,"expression of Bax, p53 and cleaved-PARP",[1],"significantly promote the expression of the proapoptotic protein Bax, the tumor suppressor gene p53, and the cleaved DNA repair enzyme; also recorded: significantly induce the expression of Bax, p53 and cleaved-PARP"
same,"cell cycle arrest (G2/M, mitotic arrest)",Hela cells,significantly arrest cells in the G2/M phase; also recorded: significantly induce cellular mitotic arrest
